Tests used:
porcine kidney DAO = biological target: T1, porcine kidney DAO (Sus scrofa, UniProt P00371); test: pkDAO enzymatic assay (porcine kidney DAO IC50 assay); format: biochemical; conditions: D-alanine substrate, pH 8.3, 37° C., without FAD
T1 construct: purchased Sigma-Aldrich; host or cells: porcine kidney
Method: The DAAO enzymatic activity assay was modified according to the report of Oguri et al (Oguri, S., Screening of d-amino acid oxidase inhibitor by a new multi-assay method. Food chemistry 2007, 100 (2), 616). The DAAO activity was measured by using substrate D-alanine reaction produced hydrogen peroxide (H2O2) to further react with 3-(4-hydroxyphenyl) propionic acid (HPPA). The HPPA were oxidized by H2O2 and peroxidase to become the fluorogenic dimer which was measured to represent the activity of DAAO.
For porcine kidney DAO IC50 assay, the DAO substrate was prepared in 50 mM D-alanine (dissolved in 0.2 M Tris-HCl buffer, pH 8.3). A 100 μl of D-alanine solution was mixed with 4 μl (in 100% dimethyl sulfoxide, DMSO) of different concentrations of candidate compounds shown in tables below ranging from 48.83 μM, 97.66 μM, 195.31 μM, 390.63 μM, 781.25 μM, 1.56 mM, 3.13 mM, 6.25 mM, 12.50 mM, 25.00 mM, and 50.00 mM, with a final DMSO concentration of 0.167% in each reaction concentration. 10 μl of D-alanine and candidate compound mixture was incubated with 220 μl of Reaction Master Mix in black 96 well plate at 37° C. for 5 minutes. The Reaction Master Mix contained 110 μl of 5 U/mL porcine kidney DAO (Sigma-Aldrich, USA) solution (dissolved with 0.2 M Tris-HCl buffer, pH 8.3), 1.1 mL of 15 U/mL peroxidase solution (dissolved with 0.2 M Tris-HCl buffer, pH 8.3), 1.1 mL of 20 mM HPPA solution (dissolved with 0.2 M Tris-HCl buffer, pH 8.3), and 22 ml of 2 M Tris-HCl buffer (pH 8.3) for 110 reaction assays.
Fluorescence intensity (Fs) was measured at 405 nm by irradiation excitation at 320 nm. The higher the DAO enzymatic activity was, the higher the fluorescence intensity. The fluorometric inhibition indicator (Fi) was obtained from the following equation: Fi=(Fs-FDrug)/(FDMSO), where the fluorescent drug blank (FDrug) was measured in the drug mixture solution (using 0.2 M Tris HCl buffer, pH 8.3, without D-alanine). A DMSO blank (FDMSO) was measured under a 100% DMSO solution.
Although FAD is generally included in the reaction mixture in the D-amino acid oxidase assay since it easily dissociates from the holoenzyme, the present method was performed without FAD. The inhibitory effect of DAO inhibitors was compared by using inhibitory concentrations leading to 50% inhibition of DAAO activity (IC50). The IC50 values were calculated by nonlinear regression model using GraphPad Prism, version 5(GraphPad Software, Inc., La Jolla, Calif.).

[1] = biological target: T2, DAO in SK-N-SH neuroblastoma cells (Homo sapiens, UniProt P14920); test: Cell-based DAO assay in SK-N-SH cells; parameters: key to Relative DAO activity normalize to DMSO at Final Conc. 100 uM / Relative DAO activity normalize to DMSO at Final Conc. 10 uM: fraction of DMSO-control DAO activity (1 = DMSO); conditions: SK-N-SH 1.25*10^5 cells/well, drug treated for 3.5 hr; for IC50: 50 mM D-serine
T2 construct: endogenous in cells; host or cells: SK-N-SH neuroblastoma cells (ATCC)
Method: The SK-N-SH neuroblastoma cell line was purchased from American Type Culture Collection (ATCC). It was cultured in MEM media (Invitrogen/GIBCO, Rockville, Md.) supplemented with 10% fetal bovine serum, 1×NEAA (Invitrogen/GIBCO) at 37° C. with 5% CO2 in a humidified atmosphere. Cells were trypsinized and plated into a black 96-well plate (NUNC No. 237108) at a density of 125,000 cells/well in 50 μl before cell-based DAO assay.
The cellular DAO activity assay was using a method modified according to the report of Brandish et al. (Brandish, P. E., et al., A cell-based ultra-high-throughput screening assay for identifying inhibitors of D-amino acid oxidase. J Biomol Screen, 2006. 11(5): p. 481-7). SK-N-SH cells were suspended in assay buffers of HANKS buffer solution (Invitrogen/GIBCO No. 14025-092) with 20 mM HEPES. D-serine of (final concentration 50 mM) was added in each well as the substrate for DAO enzyme. The Amplex Red Hydrogen Peroxide/Proxidase Assay Kit (Molecular Probes/Invitrogen, cat. A22188) was used to measure H2O2 production which diffused across the cell membrane into the assay medium after DAO reaction. After seeding cells into black 96-well plate (Nunc No. 237108, Denmark), 50 μl of SK-N-SH cells (125,000 cells/well) was mixed with 50 μl drug solution (2.5 fold of interesting final concentration) and incubate at 37° C. with 5% CO2 in a humidified atmosphere for 30 minutes. After 30 minutes later, 25 μl of a 5 fold mixture containing D-serine, horseradish peroxidase (HRP), and Amplex Red was added into wells containing 100 μl of cell-drugs mixture and incubated at 37° C. with 5% CO2 in a humidified atmosphere for 3 hours. The final concentration of DMSO is below 1%. The fluorescence signal was then detected in SpectraMax M2e microplate reader (Molecular Devices, USA) with excitation at 544 nm and emission at 590 nm. The optimized assay buffer contained a final concentration of 50 mM D-serine, 0.625 units HRP, and 50 μM Amplex Red in a 125 μl assay volume.

T2 sequence (P14920 whole entry): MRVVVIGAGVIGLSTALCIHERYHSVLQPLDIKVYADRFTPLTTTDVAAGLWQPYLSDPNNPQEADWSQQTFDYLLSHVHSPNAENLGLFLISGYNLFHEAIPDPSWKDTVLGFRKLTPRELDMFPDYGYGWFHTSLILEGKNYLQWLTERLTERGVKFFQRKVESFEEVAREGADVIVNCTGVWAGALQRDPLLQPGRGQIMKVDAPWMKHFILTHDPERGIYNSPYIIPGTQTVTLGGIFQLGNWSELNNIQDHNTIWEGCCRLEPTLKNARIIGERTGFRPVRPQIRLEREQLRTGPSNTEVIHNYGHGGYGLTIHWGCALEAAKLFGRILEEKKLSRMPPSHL
T1 sequence (P00371 whole entry): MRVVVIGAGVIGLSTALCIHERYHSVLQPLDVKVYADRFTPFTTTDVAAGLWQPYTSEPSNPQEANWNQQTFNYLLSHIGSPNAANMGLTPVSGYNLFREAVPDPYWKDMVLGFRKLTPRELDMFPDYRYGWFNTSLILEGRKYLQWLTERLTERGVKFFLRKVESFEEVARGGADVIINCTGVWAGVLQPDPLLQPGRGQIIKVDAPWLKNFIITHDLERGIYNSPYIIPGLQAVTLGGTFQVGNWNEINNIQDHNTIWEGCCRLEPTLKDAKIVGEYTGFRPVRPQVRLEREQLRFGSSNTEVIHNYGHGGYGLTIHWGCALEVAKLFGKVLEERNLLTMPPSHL

Compound | IC50 (porcine kidney DAO) | Relative DAO activity normalize to DMSO at Final Conc. 10 uM [1] | Relative DAO activity normalize to DMSO at Final Conc. 100 uM [1] | IC50 [1]
O=c1[nH]oc2ccc(Cl)cc12 [CBIO, reference compound] | 0.583 µM | 1.00 | 0.83 | 392 µM
COc1ccc(C(=O)Oc2ccc3[nH]c([S+]([O-])Cc4ncc(C)c(OC)c4C)nc3c2)cc1 (stereo not drawn) [compound 11020, 2-(((4-methoxy-3,5-dimethylpyridin-2-yl)methyl)sulfinyl)-1H-benzo[d]imidazol-5-yl 4-methoxybenzoate] | 10.4 µM | 0.97 | 0.67 | 221 µM
COc1c(C)cnc(C[S+]([O-])c2nc3cc(OC(=O)c4ccco4)ccc3[nH]2)c1C (stereo not drawn) [compound 12122, 2-(((4-methoxy-3,5-dimethylpyridin-2-yl)methyl)sulfinyl)-1H-benzo[d]imidazol-5-yl furan-2-carboxylate] | 12.5 µM | 0.98 | 0.57 | 147 µM
C/C=C\C(=O)Oc1ccc2[nH]c([S+]([O-])Cc3ncc(C)c(OC)c3C)nc2c1 (stereo not drawn) [compound 12124, 2-(((4-methoxy-3,5-dimethylpyridin-2-yl)methyl)sulfinyl)-1H-benzo[d]imidazol-5-yl (Z)-but-2-enoate] | 11.2 µM | 0.97 | 0.36 | 108 µM
COc1c(C)cnc(C[S+]([O-])c2nc3cc(OC(=O)C=C(C)C)ccc3[nH]2)c1C (stereo not drawn) [compound 12125, 2-(((4-methoxy-3,5-dimethylpyridin-2-yl)methyl)sulfinyl)-1H-benzo[d]imidazol-5-yl 3-methylbut-2-enoate] | 13.3 µM | 0.80 | 0.50 | 122 µM
COc1c(C)cnc(C[S+]([O-])c2nc3cc(OP(=O)(Oc4ccccc4)Oc4ccccc4)ccc3[nH]2)c1C (stereo not drawn) [compound 13084, 2-(((4-methoxy-3,5-dimethylpyridin-2-yl)methyl)sulfinyl)-1H-benzo[d]imidazol-5-yl diphenyl phosphate] | 181 µM | 0.71 | 0.49 | 34.9 µM
COc1c(C)cnc(CN(Cc2ncc(C)c(OC)c2C)c2nc3cc(C(=O)O)ccc3n2CCC2=CCCCC2)c1C [compound 21105, 2-(bis((4-methoxy-3,5-dimethylpyridin-2-yl)methyl)amino)-1-(2-(cyclohex-1-en-1-yl)ethyl)-1H-benzo[d]imidazole-5-carboxylic acid] | 301 µM | 0.89 | 0.58 | 219 µM
COC(=O)c1ccc2c(c1)N=C(NCc1ncc(C)c(OC)c1C)N(CCC1=CCCCC1)C2 [compound 21106, Methyl 3-(2-(cyclohex-1-en-1-yl)ethyl)-2-(((4-methoxy-3,5-dimethylpyridin-2-yl)methyl)amino)-3,4-dihydroquinazoline-7-carboxylate] | 488 µM | 1.02 | 0.77 | 478 µM
COc1c(C)cnc(C[S+]([O-])c2nc3cc(OC(C)=O)ccc3[nH]2)c1C (stereo not drawn) [compound 21122, 2-(((4-methoxy-3,5-dimethylpyridin-2-yl)methyl)sulfinyl)-1H-benzo[d]imidazol-5-yl acetate] | 21.1 µM | 0.99 | 0.50 | 149 µM
COc1c(C)cnc(C[S+]([O-])c2nc3cc(OC(=O)OC(C)(C)C)ccc3[nH]2)c1C (stereo not drawn) [compound 21132, tert-butyl (2-(((4-methoxy-3,5-dimethylpyridin-2-yl)methyl)sulfinyl)-1H-benzo[d]imidazol-5-yl)carbonate] | 64.2 µM | 0.94 | 0.61 | 175 µM
CCCCC(=O)Oc1ccc2[nH]c([S+]([O-])Cc3ncc(C)c(OC)c3C)nc2c1 (stereo not drawn) [compound 25016, 2-(((4-methoxy-3,5-dimethylpyridin-2-yl)methyl)sulfinyl)-1H-benzo[d]imidazol-5-yl pentanoate] | 13.4 µM | 1.00 | 0.62 | 188 µM
COc1c(C)cnc(C[S+]([O-])c2nc3cc(OC(=O)C4CCC4)ccc3[nH]2)c1C (stereo not drawn) [compound 25027, 2-(((4-methoxy-3,5-dimethylpyridin-2-yl)methyl)sulfinyl)-1H-benzo[d]imidazol-5-yl cyclobutanecarboxylate] | 21 µM | 1.15 | 0.69 | 240 µM
COC(=O)c1ccc2c(c1)N=C(N(Cc1ncc(C)c(OC)c1C)Cc1ncc(C)c(OC)c1C)N(Cc1ccco1)C2 [compound 26072, Methyl 2-(bis((4-methoxy-3,5-dimethylpyridin-2-yl)methyl)amino)-3-(furan-2-ylmethyl)-3,4-dihydroquinazoline-7-carboxylate] | 236 µM | 0.87 | 0.74 | 393 µM
COc1c(C)cnc(C[S+]([O-])c2nc3cc(OC(=O)C4CC4)ccc3[nH]2)c1C (stereo not drawn) [compound 28092, 2-(((4-methoxy-3,5-dimethylpyridin-2-yl)methyl)sulfinyl)-1H-benzo[d]imidazol-5-yl cyclopropanecarboxylate] | 46.7 µM | 0.94 | 0.58 | 136 µM
COc1c(C)cnc(C[S+]([O-])c2nc3cc(OC(=O)Cc4ccccc4)ccc3[nH]2)c1C (stereo not drawn) [compound 28094, 2-(((4-methoxy-3,5-dimethylpyridin-2-yl)methyl)sulfinyl)-1H-benzo[d]imidazol-5-yl 2-phenylacetate] | 21.1 µM | 1.10 | 0.58 | 121 µM

Reference: patent publication US11370775B2, “Substituted benzimidazole derivatives as D-amino acid oxidase (DAAO) inhibitors” (NATIONAL TAIWAN UNIVERSITY, priority 2016, dated 2022)
